In patent publication US20030078251A1, “Benzoxazepinones and their use as squalene synthase inhibitors” (priority 2000, published 2003):

Compound | melting point
COc1cccc([C@H]2O[C@H](CC(=O)Nc3cccc(CCCCC(=O)O)c3)C(=O)N(CC(C)(C)CO)c3ccc(Cl)cc32)c1OC [Example 135, 5-[3-[[[(3R,5S)-7-Chloro-5-(2,3-dimethoxyphenyl)-1-(3-hydroxy-2,2-dimethylpropyl)-2-oxo-1,2,3,5-tetrahydro-4,1-benzoxazepin-3-yl]acetyl]amino]phenyl]pentanoic acid] | 117 to 119 °C
COc1cccc([C@H]2O[C@H](CC(=O)Nc3ccc(OCC(=O)O)cc3F)C(=O)N(CC(C)(C)CO)c3ccc(Cl)cc32)c1OC [Example 136] | 192 to 193 °C (dec.)
COc1ccc(C(C)(C)C(=O)O)cc1NC(=O)C[C@H]1O[C@H](c2cccc(OC)c2OC)c2cc(Cl)ccc2N(CC(C)(C)CO)C1=O [Example 137, 2-[3-[[2-[(3R,5S)-7-Chloro-5-(2,3-dimethoxyphenyl)-1-(3-hydroxy-2,2-dimethylpropyl)-2-oxo-1,2,3,5-tetrahydro-4,1-benzoxazepin-3-yl]acetyl]amino]-4-methoxyphenyl]-2,2-dimethylacetic acid] | 225 to 226 °C (dec.)
COc1ccc(C(C)(C)CCC(=O)O)cc1NC(=O)C[C@H]1O[C@H](c2cccc(OC)c2OC)c2cc(Cl)ccc2N(CC(C)(C)CO)C1=O [Example 138, 4-[3-[[2-[(3R,5S)-7-Chloro-5-(2,3-dimethoxyphenyl)-1-(3-hydroxy-2,2-dimethylpropyl)-2-oxo-1,2,3,5-tetrahydro-4,1-benzoxazepin-3-yl]acetyl]amino]-4-methoxyphenyl]-4,4-dimethylbutanoic acid] | 173 to 174 °C
COc1ccc(CCCCC(=O)O)cc1NC(=O)C[C@H]1O[C@H](c2cccc(OC)c2OC)c2cc(Cl)ccc2N(CC(C)(C)CO)C1=O [Example 139, 5-[3-[[2-[(3R,5S)-7-Chloro-5-(2,3-dimethoxyphenyl)-1-(3-hydroxy-2,2-dimethylpropyl)-2-oxo-1,2,3,5-tetrahydro-4,1-benzoxazepin-3-yl]acetyl]amino]-4-methoxyphenyl]pentanoic acid] | 136 to 138 °C
COc1cccc([C@H]2O[C@H](CC(=O)Nc3cccc(C(=O)O)n3)C(=O)N(CC(C)(C)CO)c3ccc(Cl)cc32)c1OC [Example 140, 6-[[[(3R,5S)-5-(2,3-Dimethoxyphenyl)-7-chloro-1-(3-hydroxy-2,2-dimethylpropyl)-2-oxo-1,2,3,5-tetrahydro-4,1-benzoxazepin-3-yl]acetyl]amino]-2-pyridinecarboxylic acid] | 265 to 270 °C (dec.)
COc1cccc([C@H]2O[C@H](CC(=O)Nc3ncc(C(=O)O)s3)C(=O)N(CC(C)(C)CO)c3ccc(Cl)cc32)c1OC [Example 141, 2-[[[(3R,5S)-7-Chloro-5-(2,3-dimethoxyphenyl)-1-(3-hydroxy-2,2-dimethylpropyl)-2-oxo-1,2,3,5-tetrahydro-4,1-benzoxazepin-3-yl]acetyl]amino]-1,3-thiazole-5-carboxylic acid] | 241 to 242.2 °C
COc1cccc([C@H]2O[C@H](CC(=O)Nc3nc(C(=O)O)cs3)C(=O)N(CC(C)(C)CO)c3ccc(Cl)cc32)c1OC [Example 142, 2-[[[(3R,5S)-7-Chloro-5-(2,3-dimethoxyphenyl)-1-(3-hydroxy-2,2-dimethylpropyl)-2-oxo-1,2,3,5-tetrahydro-4,1-benzoxazepin-3-yl]acetyl]amino]-1,3-thiazole-4-carboxylic acid] | 277.3 to 277.9 °C
COc1cccc([C@H]2O[C@H](CC(=O)Nc3ncc(CC(=O)O)s3)C(=O)N(CC(C)(C)CO)c3ccc(Cl)cc32)c1OC [Example 143, [2-[[[(3R,5S)-7-Chloro-5-(2,3-dimethoxyphenyl)-1-(3-hydroxy-2,2-dimethylpropyl)-2-oxo-1,2,3,5-tetrahydro-4,1-benzoxazepin-3-yl]acetyl]amino]-1,3-thiazol-5-yl]acetic acid] | 239 to 241 °C
COc1cccc([C@H]2O[C@H](CC(=O)Nc3ncc(CCC(=O)O)s3)C(=O)N(CC(C)(C)CO)c3ccc(Cl)cc32)c1OC [Example 144, 3-[2-[[[(3R,5S)-7-Chloro-5-(2,3-dimethoxyphenyl)-1-(3-hydroxy-2,2-dimethylpropyl)-2-oxo-1,2,3,5-tetrahydro-4,1-benzoxazepin-3-yl]acetyl]amino]-1,3-thiazol-5-yl]propionic Acid] | 203 to 205 °C
COc1cccc([C@H]2O[C@H](CC(=O)Nc3nc(C)c(C(=O)O)s3)C(=O)N(CC(C)(C)CO)c3ccc(Cl)cc32)c1OC [Example 145, 2-[[[(3R,5S)-7-Chloro-5-(2,3-dimethoxyphenyl)-1-(3-hydroxy-2,2-dimethylpropyl)-2-oxo-1,2,3,5-tetrahydro-4,1-benzoxazepin-3-yl]acetyl]amino]-4-methyl-1,3-thiazole-5-carboxylic acid] | 251 to 252 °C
COc1cccc([C@H]2O[C@H](CC(=O)Nc3ccc4[nH]c(SCC(=O)O)nc4c3)C(=O)N(CC(C)(C)CO)c3ccc(Cl)cc32)c1OC [Example 148, 2-[[5-[[[(3R,5S)-7-Chloro-5-(2,3-dimethoxyphenyl)-1-(3-hydroxy-2,2-dimethylpropyl)-2-oxo-1,2,3,5-tetrahydro-4,1-benzoxazepin-3-yl]acetyl]amino]-1H-benzimidazol-2-yl]sulfanyl]acetic acid] | 187.9 to 188.9 °C
COc1cccc([C@H]2O[C@H](CC(=O)Nc3cc(OC)c4oc(C(=O)O)cc4c3)C(=O)N(CC(C)(C)CO)c3ccc(Cl)cc32)c1OC [Example 149, 5-[[[(3R,5S)-5-(2,3-dimethoxyphenyl)-7-chloro-1-(3-hydroxy-2,2-dimethylpropyl)-2-oxo-1,2,3,5-tetrahydro-4,1-benzoxazepin-3-yl]acetyl]amino]-7-methoxy-1-benzofran-2-carboxylic acid] | 175.4 to 175.5 °C
CCOc1cc(NC(=O)C[C@H]2O[C@H](c3cccc(OC)c3OC)c3cc(Cl)ccc3N(CC(C)(C)CO)C2=O)cc2cc(C(=O)O)oc12 [Example 150, 5-[[[(3R,5S)-7-chloro-5-(2,3-dimethoxyphenyl)-1-(3-hydroxy-2,2-dimethylpropyl)-2-oxo-1,2,3,5-tetrahydro-4,1-benzoxazepin-3-yl]acetyl]amino]-7-ethoxy-1-benzofuran-2-carboxylic acid] | 181 to 181.5 °C
COc1cccc([C@H]2O[C@H](CC(=O)Nc3cc(OC(C)C)c4oc(C(=O)O)cc4c3)C(=O)N(CC(C)(C)CO)c3ccc(Cl)cc32)c1OC [Example 152, 5-[[[(3R,5S)-7-Chloro-5-(2,3-dimethoxyphenyl)-1-(3-hydroxy-2,2-dimethylpropyl)-2-oxo-1,2,3,5-tetrahydro-4,1-benzoxazepin-3-yl]acetyl]amino]-7-[(1-methylethyl)oxy]-1-benzofuran-2-carboxylic acid] | 188.6 to 189.7 °C
COc1cccc([C@H]2O[C@H](CC(=O)Nc3ccc4oc(C(=O)O)c(OC)c4c3)C(=O)N(CC(C)(C)CO)c3ccc(Cl)cc32)c1OC [Example 153, 5-[[[(3R,5S)-7-chloro-5-(2,3-dimethoxyphenyl)-7-chloro-1-(3-hydroxy-2,2-dimethylpropyl)-2-oxo-1,2,3,5-tetrahydro-4,1-benzoxazepin-3-yl]acetyl]amino]-3-methoxy-1-benzofuran-2-carboxylic acid] | 175.4 to 176.3 °C
COc1cccc([C@H]2O[C@H](CC(=O)Nc3ccc4oc(C(=O)O)c(OCC(=O)O)c4c3)C(=O)N(CC(C)(C)CO)c3ccc(Cl)cc32)c1OC [Example 155, 5-[[[(3R,5S)-7-chloro-5-(2,3-dimethoxyphenyl)-1-(3-hydroxy-2,2-dimethylpropyl)-2-oxo-1,2,3,5-tetrahydro-4,1-benzoxazepin-3-yl]acetyl]amino]-3-[(carboxymethyl)oxy]-1-benzofuran-2-carboxylic acid] | 193 to 195.5 °C
COc1cccc([C@H]2O[C@H](CC(=O)Nc3ccc4oc(C(=O)O)c(OC(C)C)c4c3)C(=O)N(CC(C)(C)CO)c3ccc(Cl)cc32)c1OC [Example 156, 5-[[[(3R,5S)-7-chloro-5-(2,3-dimethoxyphenyl)-1-(3-hydroxy-2,2-dimethylpropyl)-2-oxo-1,2,3,5-tetrahydro-4,1-benzoxazepin-3-yl]acetyl]amino]-3-[(1-methylethyl)oxy]-1-benzofuran-2-carboxylic acid] | 174.2 to 174.9 °C
COc1cccc([C@H]2O[C@H](CC(=O)Nc3ccc4[nH]c(C(=O)O)cc4c3)C(=O)N(CC(C)(C)CO)c3ccc(Cl)cc32)c1OC [Example 157] | 200.5 to 200.6 °C
COc1cccc([C@H]2O[C@H](CC(=O)Nc3ccc4oc(CCC(=O)O)cc4c3)C(=O)N(CC(C)(C)CO)c3ccc(Cl)cc32)c1OC [Example 159, 3-[5-[[[(3R,5S)-7-Chloro-5-(2,3-dimethoxyphenyl)-1-(3-hydroxy-2,2-dimethylpropyl)-2-oxo-1,2,3,5-tetrahydro-4,1-benzoxazepin-3-yl]acetyl]amino]-1-benzofuran-2-yl]propanoic acid] | 207 to 209 °C
COc1cccc([C@H]2O[C@H](CC(=O)Nc3ccc4oc(C(=O)O)c(C)c4c3)C(=O)N(CC(C)(C)CO)c3ccc(Cl)cc32)c1OC [Example 160, 5-[[[(3R,5S)-7-Chloro-5-(2,3-dimethoxyphenyl)-1-(3-hydroxy-2,2-dimethylpropyl)-2-oxo-1,2,3,5-tetrahydro-4,1-benzoxazepin-3-yl]acetyl]amino]-3-methyl-1-benzofuran-2-carboxylic acid] | 175 to 176.5 °C
COc1cccc([C@H]2O[C@H](CC(=O)Nc3cc(C)c4oc(C(=O)O)cc4c3)C(=O)N(CC(C)(C)CO)c3ccc(Cl)cc32)c1OC [Example 161, 5-[[[(3R,5S)-7-Chloro-5-(2,3-dimethoxyphenyl)-1-(3-hydroxy-2,2-dimethylpropyl)-2-oxo-1,2,3,5-tetrahydro-4,1-benzoxazepin-3-yl]acetyl]amino]-7-methyl-1-benzofuran-2-carboxylic acid] | 180.7 to 182 °C
CCc1cc(NC(=O)C[C@H]2O[C@H](c3cccc(OC)c3OC)c3cc(Cl)ccc3N(CC(C)(C)CO)C2=O)cc2cc(C(=O)O)oc12 [Example 162, 5-[[2-[(3R,5S)-7-Chloro-5-(2,3-dimethoxyphenyl)-1-(3-hydroxy-2,2-dimethylpropyl)-2-oxo-1,2,3,5-tetrahydro-4,1-benzoxazepin-3-yl]acetyl]amino]-7-ethyl-1-benzofuran-2-carboxylic acid] | 188 to 189 °C
